Data on one compound can be found in US20070060591A1, “Chemokine receptor binding heterocyclic compounds” (priority 1999, published 2007).

Each structure is given as a SMILES string. In brackets after ≈: the same amount, converted by molar mass.

A short description of one data set: in vitro. It is filed as cell-based. Conditions: human. The protocol:
(§1) The compounds of the invention were tested in a screen by the MTT method (J. Virol. Methods […] (1988)). MT-4 cells (2.5×10^4/well) were challenged with HIV-1 (HTLV-IIIB) or HIV-2 (LAV-2 ROD) at a concentration of 100 CCID50 and incubated in the presence of various concentrations of the test compounds, which were added immediately after challenge with the virus. After 5 days culture at 37° C. in a CO2 incubator, the number of viable cells was assessed by the MTT (tetrazolium) method. […] The potential therapeutic usefulness was assessed by calculating a Selectivity Index (SI) corresponding to the ratio of CC50 to EC50.

The subject of the next data set is HIV-2 (LAV-2 ROD). Description: Anti-HIV-2 screen by the MTT method in MT-4 cells. The conditions noted are these: Human immunodeficiency virus 2, MT4, 120 h, 100 CCID50, 5 days. The class given is cell-based. On the procedure: as §1
The subject of another data set is HIV-1 (HTLV-IIIB). Put plainly: microbe, parasite or virus in culture. The class given is cell-based. The conditions noted are these: MT-4 cells. The protocol: as §1
In data set [1] the target is T1, CXCR-4 (Homo sapiens, UniProt P61073).
T1 construct: endogenous in cells; host or cells: SUP-T1 cells
T1 sequence (P61073 whole entry): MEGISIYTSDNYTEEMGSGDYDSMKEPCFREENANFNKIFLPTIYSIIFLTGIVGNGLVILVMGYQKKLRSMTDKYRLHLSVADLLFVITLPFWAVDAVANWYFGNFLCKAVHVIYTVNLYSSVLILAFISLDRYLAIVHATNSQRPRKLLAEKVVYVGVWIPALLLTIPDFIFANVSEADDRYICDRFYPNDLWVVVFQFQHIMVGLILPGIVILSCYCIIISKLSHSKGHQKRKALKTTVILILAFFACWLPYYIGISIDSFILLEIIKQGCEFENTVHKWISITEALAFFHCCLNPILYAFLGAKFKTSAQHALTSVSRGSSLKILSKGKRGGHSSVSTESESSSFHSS
Description: Inhibition of signal transduction (Ca2+ flux) induced by SDF-1α binding to CXCR-4 on SUP-T1 cells. It is filed as cell-based. Conditions: SDF-1α induced.

For data set [2], the target named is T1, CXCR-4. Put plainly: Inhibition of mAb 12G5 binding to CXCR-4 in SUP-T1 cells.

`c1ccc(CNCc2ccc(CN3CCCNCCNCCCNCC3)cc2)nc1` [AMD3465, N-[1,4,8,11-Tetraazacyclotetradecanyl-1,4-phenylenebis(methylene)]-2-(amino-methyl)pyridine] displayed a CC50 at 5 days in “in vitro” of over 250 µg/mL. Also, the EC50 was found to be 0.032 µg/mL (≈ 0.0779 µM) in the data set with HIV-2 (LAV-2 ROD) and 0.008 µg/mL (≈ 0.0195 µM) in the data set on HIV-1 (HTLV-IIIB) (Human immunodeficiency virus 1, IIIB, MT4, 120 h, 100 CCID50, 5 days, MTT). The “SI HIV-1 (Selectivity Index, ratio of CC50 to EC50)” value in the data set on HIV-1 (HTLV-IIIB) (HIV-1 (IIIB)) is given as 3 × 10^4. Further, the IC50 on CXCR-4 [1] was 2.44 nM; on CXCR-4 [2], 7.31 nM.
